Measured values: publication PMC9095466 (Nature, 2022)
Several values for one entry are separate records, joined by “and”; a condition that tells them apart may be missing. Equal entries are not always repeated. Where two headings read alike, the source gives them in different places.

What was measured:
mouse TMPRSS2 = mouse TMPRSS2 (Mus musculus, UniProt Q9JIQ8); test: cell-based
[1] = tested on: SARS-CoV-2 B.1.351 (Beta); test: microbe, parasite or virus in culture; format: cell-based; conditions: SA
SARS-CoV-2 VOCs = test: SARS-CoV-2 VOC infection of Calu-3 cells, summary over all VOCs; format: cell-based; conditions: Severe acute respiratory syndrome coronavirus 2, range over VOCs
SARS-CoV-2 (VIDO) = format: cell-based; parameters: plaque assay titre, Figure 2c: unit not given beside the values; conditions: for reduction of viral titre (plaque assay): supernatant of infected Calu-3 cells, vs DMSO-treated infected control; for plaque assay titre, Figure 2c: replicate columns
[2] = Cytotoxicity assay (Cell Titer-Glo 2.0) in Vero E6 cells; format: cell-based; conditions: African green monkey
Experimental: Calu-3 and Vero E6 cells (2500 or 10,000 cells for samples, 80–20,000 cells for standard curve) were seeded in 96-well plates. Following a 24-h incubation at 37 °C, 5% CO2, cells were washed with D-PBS and compounds added (10 µM) for an additional 24-h incubation. Cellular viability was assessed using Cell Titer-Glo 2.0 Cell Viability Assay (Promega) according to the manufacturer’s instructions. The number of viable cells was extrapolated using the standard curve. Cellular viability in Vero E6 cells was expressed relative (%) to vehicle-treated cells. Data are from four independent experiments (mean ± s.d.).

[3] = tested on: SARS-CoV-2 (USA-WA1/2020, lineage A); parameters: species or system K18-hACE2 mice; conditions: mouse, in vivo
[4] = tested on: SARS-CoV-2 (USA-WA1/2020, lineage A); test: K18-hACE2 mouse model of SARS-CoV-2, IHC of nucleocapsid with digital image analysis; format: in vivo, K18-hACE2 mice; conditions: for Num Positive per mm^2 (IHC) / Positive % (IHC): Lung, Figure 5 Panel G, individual animals
Experimental: (§1) To detect viral antigen, sections were labelled with anti-SARS-CoV-2 nucleocapsid protein rabbit IgG monoclonal antibody (GeneTex; GTX635679) at a 1:5,000 dilution and processed using a Leica Bond Max automated IHC stainer. Leica Bond Polymer Refine Detection (Leica; DS9800) with DAB was used as the chromogen. Image acquisition was performed using a Roche Ventana DP200 slide scanner. Digital image analysis was performed using QuPath software[65],[66] v.0.2.3. Tissues were annotated to include all available lung tissue or all brain tissue excluding cerebellum, as cerebellar tissue was not available for all mice. Following annotation, automated detection was performed using automated SLIC superpixel segmentation with a DAB mean detection threshold of 0.18892.

[5] = tested on: SARS-CoV-2 (USA-WA1/2020, lineage A); format: in vivo, K18-hACE2 mice
[6] = tested on: SARS-CoV-2 B.1.617.2 (Delta); parameters: species or system K18-hACE2 mice; conditions: mouse, in vivo
[7] = tested on: SARS-CoV-2 B.1.617.2 (Delta); format: in vivo, K18-hACE2 mice; conditions: for PFU/g / PFU/mL: lung, plaque assay, N-0385 12h PI, individual mice
[8] = tested on: SARS-CoV-2 B.1.617.2 (Delta); test: K18-hACE2 mice infected with Delta VOC, IHC of nucleocapsid in lung; format: in vivo
Experimental: as §1

[9] = tested on: SARS-CoV-2 (USA-WA1/2020, lineage A); test: K18-hACE2 mouse model of SARS-CoV-2, H&E histopathology of lung and brain; conditions: 8-day regimen
Experimental: (§2) For histological examination, mouse lungs and brains were collected directly after euthanasia and placed in 10% formalin for more than 72 h, after which tissues were embedded in paraffin. Tissue sections (4 μm) were analysed after staining with H&E and scored blinded by an anatomic pathologist. For lung, scores were applied based on the percentage of each tissue type (alveolus, vessels and so on) affected using the following criteria: (0) normal; (1) less than 10% affected; (2) 10–25% affected; (3) 26–50% affected; and (4) more than 50% affected[64]. Assessment of lung pathology in K18-hACE2 mice infected with the SARS-CoV-2 B.1.617.2 (Delta) VOC after single-dose treatment was performed on IHC sections counterstained with haematoxylin. For brains, histological scoring was assessed for perivascular inflammation using the most severely affected vessel and the following criteria: (0) no perivascular inflammation; (1) incomplete cuff one cell layer thick; (2) complete cuff one cell layer thick; (3) complete cuff two to three cells thick; and (4) complete cuff four or more cells thick. Necrotic cells in the neuroparenchyma were assessed per 0.237 mm^2 field using the most severely affected area and the following criteria: (0) no necrotic cells; (1) rare individual necrotic cells; (2) fewer than 10 necrotic cells; (3) 11 to 25 necrotic cells; (4) 26 to 50 necrotic cells; and (5) greater than 50 cells.

[10] = tested on: SARS-CoV-2 B.1.617.2 (Delta); test: K18-hACE2 mice infected with Delta VOC, lung pathology scores on IHC sections; conditions: individual mice, single dose 12 hpi, 3 DPI
Experimental: as §2

[11] = individual mice, 8-day regimen, tissue at death or end-point
[12] = Figure S8 C, tissue plaque assay, Females, individual animals
[13] = Figure S8 C, tissue plaque assay, Males, individual animals
[14] = Males, Figure 5 Panel F, individual animals
[15] = females, Figure 5 Panel F, individual animals
[16] = individual mice, tissue at death or end-point

Chain of mouse TMPRSS2 (Q9JIQ8 whole entry): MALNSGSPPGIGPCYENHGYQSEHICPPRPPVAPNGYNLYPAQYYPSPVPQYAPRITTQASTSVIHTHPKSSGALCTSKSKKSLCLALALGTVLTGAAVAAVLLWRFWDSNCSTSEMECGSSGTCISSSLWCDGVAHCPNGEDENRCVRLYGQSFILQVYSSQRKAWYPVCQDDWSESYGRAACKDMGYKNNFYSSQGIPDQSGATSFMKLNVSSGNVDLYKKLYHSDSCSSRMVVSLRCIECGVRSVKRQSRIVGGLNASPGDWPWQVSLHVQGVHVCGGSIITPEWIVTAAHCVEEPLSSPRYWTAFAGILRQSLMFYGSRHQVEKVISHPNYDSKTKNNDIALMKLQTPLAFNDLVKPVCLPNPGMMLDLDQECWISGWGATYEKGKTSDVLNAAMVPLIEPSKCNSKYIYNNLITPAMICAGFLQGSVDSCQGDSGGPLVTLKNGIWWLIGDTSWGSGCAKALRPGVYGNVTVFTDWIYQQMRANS

## CS(=O)(=O)NC(CCC(N)=O)C(=O)NC(Cc1ccccc1)C(=O)NC(CCCNC(=N)N)C(=O)c1nc2ccccc2s1 (stereo not shown) [Compound N-0385, Ms-QFR-kbt]
Mouse TMPRSS2; Vero E6 cells transfected with mTMPRSS2, 24 h, mean ± SD, n = 3, read-out: mouse TMPRSS2 (mTmprss2) activity IC50
  IC50: 12.3 ± 1.9 nM
Mouse TMPRSS2; mTMPRSS2, mean of independent experiments, Figure S1C, read-out: IC50 Mean
  IC50: 12.3 nM
Mouse TMPRSS2; mTMPRSS2, single experiments N1-N3, Figure S1C, read-out: IC50 determined from independant experiments
  IC50: 12.2 nM and 14.3 nM and 10.4 nM
[1]; log [C] (nM) 0.20412
  infection, dose response Figure 3c (nucleocapsid): 79.6793 and 91.7767 and 88.3707 and 72.9139 and 58.6745
  infection, dose response Figure 3d (dsRNA): 63.8002 and 67.3054 and 60.7262 and 87.9301 and 97.1304
[1]; log [C] (nM) 0.90309
  infection, dose response Figure 3c (nucleocapsid): 43.2222 and 77.2087 and 78.2089 and 72.2128 and 63.0729
  infection, dose response Figure 3d (dsRNA): 54.6567 and 62.1742 and 66.7756 and 99.2713 and 89.1898
[1]; log [C] (nM) 1.60206
  infection, dose response Figure 3c (nucleocapsid): 26.0524 and 35.9809 and 32.5888 and 37.5917 and 24.568
  infection, dose response Figure 3d (dsRNA): 39.7311 and 51.7136 and 44.1381 and 59.5864 and 41.1574
[1]; log [C] (nM) -0.49485
  infection, dose response Figure 3c (nucleocapsid): 80.9236 and 100 and 89.9432 and 52.6441
  infection, dose response Figure 3d (dsRNA): 76.5319 and 75.7767 and 69.4582 and 92.7897 and 93.6397
[1]; log [C] (nM) -1.19382
  infection, dose response Figure 3c (nucleocapsid): 96.6594 and 91.8391 and 98.1873 and 70.3455
  infection, dose response Figure 3d (dsRNA): 75.3943 and 74.8717 and 100 and 96.2799
SARS-CoV-2 VOCs; read-out: EC50 against all VOCs, dsRNA staining
  EC50: 2.6 to 26.5 nM
SARS-CoV-2 VOCs; read-out: EC50 against all VOCs, nucleocapsid staining
  EC50: 2.1 to 13.9 nM
SARS-CoV-2 (VIDO); 40 nM
  reduction of viral titre (plaque assay): ~2 log
  plaque assay titre, Figure 2c: 1000 (11×) and 22000 (2×) and 33000 and 132000 and 10000 (2×) and 33333
SARS-CoV-2 (VIDO); 200 nM
  reduction of viral titre (plaque assay): ~2 log
  plaque assay titre, Figure 2c: 1000 (8×) and 10000 (6×) and 20000 (2×) and 11111 and 40000 and 30000
[2]; 10 μM compound, 24 h, relative to vehicle (DMSO 0.01%), single experiments N1-N4, read-out: % Viability of Vero E6 cells
  viability at 24 h, 10 µM: 127%
[2]; % Viability of Vero E6 cells
  viability at 24 h, 10 µM: 100%
[3]
  average weight loss at 6 dpi: 3%
  survival: 100%
  survival to the end-point (14 dpi): 70%
  weight gain at 6 dpi: 1%
  weight gain at time of death or the study end-point: 2%
  weight loss at the study end-point: 3%
[4]; Females
  Num Positive per mm^2 (IHC): 5.547 per mm^2 and 9.942 per mm^2 and 13.6 per mm^2 and 13.27 per mm^2 and 7.069 per mm^2
  Positive % (IHC): 0.0549% and 0.0981% and 0.1335% and 0.1309% and 0.07%
[4]; Males
  Num Positive per mm^2 (IHC): 19.22 per mm^2 and 9.103 per mm^2 and 13.04 per mm^2 and 20.75 per mm^2 and 10.41 per mm^2
  Positive % (IHC): 0.1899% and 0.0899% and 0.1288% and 0.204% and 0.1028%
[4]; [11]
  Brain No. Positive (IHC detections): 113 and 131 and 205 and 255 and 133 and 201 and 429346 and 137295 and 271623 and 125
  Brain No. Positive per mm^2: 2.79 per mm^2 and 3.006 per mm^2 and 3.517 per mm^2 and 4.198 per mm^2 and 3.156 per mm^2 and 4.077 per mm^2 and 7967.3 per mm^2 and 2771 per mm^2 and 5985.4 per mm^2 and 3.495 per mm^2
  Brain Positive %: 0.0277% and 0.0298% and 0.035% and 0.0417% and 0.0314% and 0.0404% and 79.52% and 27.59% and 59.16% and 0.0347%
  Lung No. Positive (IHC detections): 192 and 131 and 152 and 95 and 269 and 3067 and 1648 and 28511 and 272
  Lung No. Positive per mm^2: 6.545 per mm^2 and 5.06 per mm^2 and 8.682 per mm^2 and 7.096 per mm^2 and 3.624 per mm^2 and 7.345 per mm^2 and 133.68 per mm^2 and 86.7 per mm^2 and 861.5 per mm^2 and 8.911 per mm^2
  Lung Positive %: 0.065% and 0.0502% and 0.0856% and 0.0701% and 0.0366% and 0.0726% and 1.322% and 0.8535% and 8.502% and 0.088%
[4]; intranasal once daily day −1 to day 2, vs saline-treated mice
  reduction of IHC staining (nucleocapsid) in lung at 3 dpi: 98%
[5]; [12]
  PFU/g: 0 PFU/g
  PFU/mL: 0 PFU/mL
[5]; [13]
  PFU/g: 0 PFU/g and 4852.94 PFU/g and 5882.35 PFU/g and 11764706 PFU/g
  PFU/mL: 0 PFU/mL and 970.588 PFU/mL and 1176.47 PFU/mL and 2352941 PFU/mL
[5]; Males, Figure 5 Panel F, at the Dilution Factor, individual animals
  Average Plaques: 53.25 and 0
[5]; [14]
  PFU/g: 2662500 PFU/g and 0 PFU/g
  PFU/mL: 532500 PFU/mL and 0 PFU/mL
[5]; endpoint plaque assay (Panel H), females, individual animals
  Average Plaques: 0
[5]; endpoint plaque assay (Panel H), females, individual animals, tissue resuspended at 5ul/mg
  PFU/g: 0 PFU/g
[5]; endpoint plaque assay (Panel H), males, individual animals
  Average Plaques: 0
[5]; endpoint plaque assay (Panel H), males, individual animals, tissue resuspended at 5ul/mg
  PFU/g: 0 PFU/g
[5]; females, Figure 5 Panel F, at the Dilution Factor, individual animals
  Average Plaques: 21 and 0 and 7.75
[5]; [15]
  PFU/g: 10500000 PFU/g and 0 PFU/g and 387500 PFU/g
  PFU/mL: 2100000 PFU/mL and 0 PFU/mL and 77500 PFU/mL
[5]; intranasal once daily day −1 to day 2, 14 dpi
  infectious virus in the lung at the study end-point: No infectious virus was detected
[5]; mouse, in vivo
  PFU/mL: 0 PFU/mL
  reduction of lung viral titres (plaque assay) at 3 dpi: 97%
[6]
  weight gain (six days after infection): 2%
  weight loss (six days after infection): 5%
[7]; Females
  PFU/g: 30000000 PFU/g and 0 PFU/g and 275000 PFU/g and 1000 PFU/g
  PFU/mL: 6000000 PFU/mL and 0 PFU/mL and 55000 PFU/mL and 200 PFU/mL
[7]; Males
  PFU/g: 275000 PFU/g and 32500 PFU/g and 1750 PFU/g and 0 PFU/g
  PFU/mL: 55000 PFU/mL and 6500 PFU/mL and 350 PFU/mL and 0 PFU/mL
[7]; mouse, in vivo
  reduction in lung viral titres at 3 dpi: more than 50%
[8]; individual mice (f = female, m = male), single dose 12 hpi, 3 dpi, Fig. 6f, listed as n385
  Num Positive events/mm^2 (nucleocapsid IHC, lung): 2181.1 events/mm^2 and 5.047 events/mm^2 and 10.41 events/mm^2 and 9.171 events/mm^2 and 935.88 events/mm^2 and 0.9105 events/mm^2 and 3.523 events/mm^2 and 51.75 events/mm^2 and 3.842 events/mm^2 and 20.48 events/mm^2
[8]; single dose at 12 hpi, vs saline-treated group
  reduction in IHC viral staining in lung at 3 dpi: more than 50%
[9]; N-0385: surviving mice, day 14
  Brain lesions (H&E): absent
[9]; individual mice, most severely affected vessel
  Perivascular infiltrates in CNS score: 0 and 1
[9]; [16]
  Alveolar cells score: 2 ((2) 10–25% affected) and 1 ((1) <10% affected) and 0
  Alveolar edema score: 0
  Alveolar fibrin score: 0
  Fibrosis score: 2 ((2) 10–25% affected) and 1 ((1) <10% affected) and 0
  Interstitial infiltrates in lung score: 2 ((2) 10–25% affected) and 1 ((1) <10% affected) and 0
  Lymphoid hyperplasia score: 1 ((1) <10% affected) and 0
  Perivascular infiltrate in lung score: 3 ((3) 26–50% affected) and 1 ((1) <10% affected) and 0
  Type II pneumocyte hyperplasia score: 2 ((2) 10–25% affected) and 1 ((1) <10% affected) and 0 and 3 ((3) 26–50% affected)
[10]; IHC sections
  Alveolar cells score: 0 and 1 ((1) <10% affected)
  Interstitial infiltrates in lung score: 1 ((1) <10% affected) and 2 ((2) 10–25% affected)
  Perivascular infiltrate in lung score: 1 ((1) <10% affected) and 2 ((2) 10–25% affected) and 0 and 3 ((3) 26–50% affected)
  Type II pneumocyte hyperplasia score: 0 and 2 ((2) 10–25% affected) and 1 ((1) <10% affected)
[10]; sum of scores
  Total Score (lung pathology): 2 and 6 and 3 and 1 and 7
